A short description of the series: Stability of bis azainositol Zirconium complexes under heat sterilization (HPLC with ICP-MS detection, ICP-OES). Format: physicochemical. As to conditions: absolute stability; aqueous, buffered solution at pH 7.4, 5 mmol/L of the compound, heated to 121 °C for 45 minutes in a steam autoclave. How it is done:
Stability of bis azainositol Zirconium complexes
The stability of bis azainositol Zirconium complexes was determined in aqueous, buffered solution at pH 7.4. The solution containing 5 mmol/L of the compound in a tightly sealed vessel was heated to 121 °C for 45 minutes in a steam autoclave. The Zirconium concentration of the solution was determined by ICP-OES before and after heat treatment. The integrity of the compound was determined by HPLC analysis before and after heat treatment. Absolute stability was calculated as the ratio of the peak area of the compound after and before the heat treatment multiplied with the ratio of the metal concentration of the solution after and before heat treatment.
• Column 1: Reversed phase C18. • Column 2: ZIC®-HILIC. • Solvent A1: 0,5 mM tetrabutylammonium phosphate pH 6 • Solvent A2: 0.1 % formic acid in water • Solvent B1: methanol • Solvent B2: acetonitrile
The use of columns, solvents, flow rate and gradients is detailed in the table below. Detector: element specific detection by ICP-MS, running at m/z 90, the most abundant isotope of Zirconium.

In turn, “Bis[µ3-3,3',3"-({[1R-(1α,2α,3α,4α,5α,6α)]-2,4,6-trihydroxylato-1κ^2O^2O^6, 2κ^2O^2O^4,3κ^2O^4O^6-cyclohexane-1,3,5-triyl}tris{methylimino-1κN^1,2κN^3,3κN^5})tripropanoato-1κO,2κO',3κO"]trizirconium(IV) [Example 3]” yielded a Stability of 100%.

Turning to “Hydroxido-3κO-[µ3-3,3',3"-({[1R-(1α,2α,3α,4α,5α,6α)]-2,4,6-trihydroxylato-1κ^2O^2O^6, 2κO^2O^4,3κ^2O^4O^6-cyclohexane-1,3,5-triyl]tris{methylimino-1κN^1,2κN^3,3κN^5}) tri-propanoato-1κO,2κO',3κO"][µ3-3,3'-({[1R-(1α,2α,3α,4α,5α,6α)]-2,4,6-trihydroxylato-1κ^2O^2O^6,2κ^2O^2O^4,3κ^2O^4O^6-5-[methylamino-3κN^5]cyclohexane-1,3-diyl}bis{methyl-imino-1κN^1,2κN^3})dipropanonato-1κO,2κO']trizirconium(IV) [Example 4]”, the Stability is on record as 100%.

The values are drawn from patent EP2873670A1, “Bis azainositol zirconium complexes for X-ray imaging” (Bayer Pharma Aktiengesellschaft, priority 2013, dated 2015).
